{"source": "patent US20120295982A1", "about": "“TREATING HUMAN MALE COPD PATIENTS WITH ORAL BEDORADRINE” (MediciNova, Inc., priority 2011, published 2012)", "key": {"[1]": {"test": "Oral bioavailability in dogs", "details": "dog, in vivo, read-out: Oral F %"}, "[2]": {"test": "Oral bioavailability in rabbits", "details": "rabbit, in vivo, read-out: Oral F %"}, "[3]": {"tested_on": "moderate-to-severe COPD patients", "test": "Phase Ib placebo-controlled test of i.v. MN-221 in moderate-to-severe COPD patients", "assay_type": "in vivo, human", "details": "for FEV1 increase as compared to baseline (average): end of infusion", "experimental": "This example provides certain preferred oral dosages for treating male COPD patients according to this invention. A randomized, double-blind, placebo-controlled phase Ib clinical test evaluated MN-221 in 48 moderate-to-severe COPD patients who received a 1 hour intravenous (i.v.) infusion of MN-221 at three different escalating dose levels (300 micrograms, 600 micrograms, or 1200 micrograms) or placebo.\n(a) diagnosed (e.g., by clinical history, 20 pack/year smoking history, physical examination [PE], and spirometry) COPD treated for ≧3 months prior to Screen Visit 1; (b) ≧30% FEV1<80% and FEV1/FVC (forced vital capacity) ratio<0.7 at Screen Visits 1 and 2; and (c) increase in FEV1 of 12%, over the pre-albuterol FEV1 within 30 min after inhalation of up to 4 puffs of albuterol delivered by Metered Dose Inhaler (MDI) with spacer at the Screen Visit 1.\n48 subjects with stable, moderate-to-severe chronic obstructive pulmonary disease were administered MN-221. The following does were administered. 10 μg/min for 15 min+3.3 μg/min for 45 min (1-hr infusion total dose 300 μg) or placebo; 20 μg/min for 15 min+6.67 μg/min for 45 min (1-hr infusion total dose 600 μg) or placebo; and 40 μg/min for 15 min+13.3 μg/min for 45 min (1-hr infusion total dose 1,200 μg) or placebo."}}, "note": "Counter-ions that a name gives are not always drawn."}
{"molecule": "CN(C)C(=O)COc1ccc2c(c1)C[C@@H](NC[C@H](O)c1ccc(O)c(CCO)c1)CC2", "note": "[MN-221, bedoradrine sulfate]", "values": [{"measurement": "bioavailability", "setting": "[1]", "value": 39, "unit": "%"}, {"measurement": "bioavailability", "setting": "[2]", "value": "≤ 3", "unit": "%"}, {"measurement": "FEV1 increase as compared to baseline (average)", "setting": "[3]; 300 microgram 1-hr i.v. infusion, p=NS", "value": 9.2, "unit": "%"}, {"measurement": "Mean changes in PEFR (L/sec)", "setting": "[3]; 600 and 1200 μg i.v. groups, greatest during 1-3 hr post infusion", "value": "higher than the all placebo group"}, {"measurement": "Mean changes in PEFR (% predicted)", "setting": "[3]; 600 and 1200 μg i.v. groups, greatest in first 3-4 hr post-infusion", "value": "higher than the all placebo group"}, {"measurement": "FEV1 increase as compared to baseline (average)", "setting": "[3]; 600 microgram 1-hr i.v. infusion, p=0.020", "value": 16.2, "unit": "%"}, {"measurement": "FEV1 increase as compared to baseline (average)", "setting": "[3]; 1200 microgram 1-hr i.v. infusion, p=0.0025", "value": 21.5, "unit": "%"}, {"measurement": "FEV1 (%, predicted)", "setting": "[3]; MN-221 treated subjects, i.v. infusion", "value": "improved"}, {"measurement": "tolerability", "setting": "[3]; i.v. infusions 300-1200 μg, COPD patients", "value": "well tolerated"}]}
